From patent publication US5608095A, “Alkyl-4-silyl-phenols and esters thereof as antiatherosclerotic agents” (Hoechst Marion Roussel, Inc., priority 1996, dated 1997) come the findings set out here.

Experiment [1] relates to VCAM-1. Description: Cell surface ELISA for VCAM-1 in human aortic smooth muscle cells (HASMC), interleukin-4 induced. The experiment is classed as cell-based. Conditions: 50 μm. As for the experimental part: (§1) Cell Surface ELISA for VCAM-1/ICAM-1
(§2) Proliferating human umbilical vein endothelial cells (HUVEC) or human aortic smooth muscle cells (HASMC) from Clonetics (San Diego, Calif.) were plated onto 96-well plates in 100 μL medium per well at 20,000 cells per cm^2. The cultures were maintained in growth medium (EGM or SMGM2, Clonetics, San Diego, Calif.) for two days prior to addition of cytokines or drugs. Cytokines plus or minus compounds were added for 20 to 24 hours prior to analysis for adhesion molecule levels. Tumor necrosis factor (Genzyme, Cambridge, Mass.) was added to cultures at 500-1000 units/mL. Interleukin-4 (GIBCO-BRL, Gaithersburg, Md.) was added to cultures at 100-200 pg/mL. (Additions were made by transferring 100 [μL of cytokines plus compounds serially diluted on a separate 96-well plate into the plates containing cells. The medium on the cultures was not exchanged prior to addition of effectors). The culture medium was removed, and the monolayers were washed twice with Hanks buffered saline solution (HBSS) at room temperature. The primary antibody (anti-human VCAM-1 from Upstate Biotechnology, Inc., Lake Placid, N.Y. or anti-human ICAM-1 from Immunotech, Inc., Westbrook, Me.) was added to each well (1 μg/mL in HBSS plus 5% newborn calf serum, GIBCO-BRL, Gaithersburg, Md.) and incubated at 37° C. for 1 hr. The wells were washed twice with HBSS, then 100 μL of a 1/1000 dilution of goat anti-mouse IgG conjugated to horse radish peroxidase (BioRad, Hercules, Calif.) in HBSS plus 5% newborn calf serum was added to each well and incubated for 1 hr at 37° C. The wells were washed three times with HBSS, then 100 μL of TMB substrate (BioRad, Hercules, Calif.) was added to each well. The reaction was stopped after blue color developed by addition of 50 μL of 1N H2 SO4. Absorbance is measured at 450 nm with a plate reader. IC50 values were determined from curves of absorbance values obtained from serial dilutions of compounds (dissolved in dimethyl sulfoxide).
(§3) The IC50 value is defined as the drug concentration that inhibits the cytokine-induced adhesion molecule expression by 50%. Maximal values for adhesion molecule expression in cytokine-induced cultures was […] the basal level of adhesion molecule expression (minus cytokines) in the cultures to determine the level of induction. […] Each drug concentration was tested in quadruplicate wells. Single point tests of compounds at 50 μM were assayed as described for IC50 determinations, except that the data represent the level of inhibition without correction for basal expression. (Basal adhesion molecule expression was 10-20% of the total induced expression). Table 1 summarizes the ability of various compounds of this invention to inhibit VCAM-1 using human aortic smooth muscle cells (HASMC). In these experiments, the cells were coincubated with interleukin-4 and the compounds listed about 20 hr before assaying cell surface VCAM-1 levels. Each column represents a separate experiment.
(In general: In an ELISA, binding on a coated surface is turned into a signal by an enzyme label.)

In experiment [2] the test system is VCAM-1. Description: Cell surface ELISA for VCAM-1 in human umbilical vein endothelial cells (HUVEC), TNF-alpha induced. Type of experiment: cell-based. The settings on record: 50 μM, average of three runs. As to the method:
as §1, §2, §3
In these experiments, the cells were coincubated with tumor necrosis factor-alpha along with the indicated compounds about 20 to 24 hr before assaying cell surface adhesion molecule expression.

Experiment [3] deals with serum cholesterol, LDL, HDL, triglycerides. Description: Serum lipids and lipoprotein cholesterol in cholesterol-fed female New Zealand White rabbits. Type of experiment: in vivo. Conditions: Oryctolagus cuniculus, po, 168 h. An outline of the steps:
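Female New Zealand White rabbits fed 0.2% cholesterol chow sprayed with 0.4% compound (some at 0.26% or 0.6%) for 7 days (0.6% arm, 14 days). Fasted serum: total cholesterol and triglycerides enzymatically (mg/dL); VLDL/LDL/HDL separated by Sepharose 6HR gel-filtration HPLC, post-column cholesterol reagent at 37 °C, A500.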

SMILES strings stand for the structures. Where two headings read alike, the source gives them in different places.

In the case of `CC(C)(C)c1cc(OC[Si](C)(C)c2ccc(C(F)(F)F)cc2)cc(C(C)(C)C)c1O` [MDL 105,975, 2,6-Di-t-butyl-4-[(dimethyl-4-trifluoromethylphenylsilyl)methyloxy]phenol], the “VCAM-1 (Avg.) % inh.” value in experiment [1] (average of HSMC-1 to HSMC-3) stood at 19.8%. Besides, in experiment [1] (experiment HSMC-2, interleukin-4, about 20 hr), the “HSMC-2 % inh. of VCAM-1” value was determined as 20.0%. Besides, the “HSMC-3 % inh. of VCAM-1” value in experiment [1] (experiment HSMC-3, interleukin-4, about 20 hr) amounted to 51.0%. This molecule yielded a VCAM-1 % inh. in experiment [2] of 6.3%. Further, the response vs control in vivo at 0.4 % was found to be 76% in experiment [3] (read-out: HDL cholesterol, percent of control); 77% in experiment [3] (read-out: LDL cholesterol, percent of control); 143% in experiment [3] (read-out: TRIG (triglycerides), percent of control); 69% in experiment [3] (read-out: chol tot. (total cholesterol), percent of control).
